Patent EP1978023A1, “Pyridazines as fungicides” (Bayer CropScience Aktiengesellschaft, priority 2007, dated 2008)

Tests used:
[1] = HPLC reversed-phase C 18; 40°C; 0.1% aqueous formic acid and acetonitrile, linear gradient 10% to 95% acetonitrile
Description: (§1) Die Kalibrierung wurde jeweils mit unverzweigten Alkan-2-onen (3 bis 16 Kohlenstoff Atome) mit bekannten logP Werten durchgeführt (Bestimmung von den logP Werten über die Retentionszeiten durch lineare Interpolation zwischen zwei bestimmten Alkanonen).

Description for physchem: as §1

Row | chromatographic logP (physchem) | log p [1] | Compound
1 | 2.9 |  | CC1(O)OC(=O)C(c2cccs2)=C1c1ccc(Cl)s1 (stereo not shown) [(3), 4-(5-Chlor-2-thienyl)-3-(2-thienyl)-5-hydroxy-5-methylfuran-2(5H)-on]
2 | 3.56 | 3,56 | Cc1nnc(Cl)c(-c2cccs2)c1-c1ccc(Cl)s1 [Beispiel 11, 3-Chlor-5-(5-chlor-2-thienyl)-4-(2-thienyl)-6-methylpyridazin]
3 | 2.71 |  | Cc1n[nH]c(=O)c(-c2cccs2)c1-c1ccc(Cl)s1 [(4), 5-(5-Chlor-2-thienyl)-4-(2-thienyl)-6-methylpyridazin-3(2H)-on]
